The record followed here is patent US20060122232A1, “4-Hydroxyfuroic acid derivatives” (DEVELOPMENT CENTER FOR BIOTECHNOLOGY, priority 2004, published 2006).

Molecules are shown by their SMILES.

The test deals with T1, human insulin receptor (CHO.IR cells) (Homo sapiens, UniProt P06213).
T1 construct: host or cells: CHO.IR cells (CHO)
Put plainly: Cell-based assay for insulin receptor tyrosine kinase activity. The conditions noted are these: 20 min; CHO.IR cells treated with 100 μM of compound; read-out: reduction in tyrosine kinase activity. The procedure: CHO.IR cells overexpressing human insulin receptor were obtained from Stanford University. Approximately 1.5×10^5 cells were seeded in each well of a 96-well plate containing Hams F12 medium plus 10% fetal calf serum, fungizone, penicillin, and streptomycin. The cells were incubated at 37° C. for approximately 24 hours, allowing cells to reach confluency. The cells were then washed with phosphate buffered saline (PBS) three times and then incubated in serum-free medium at 37° C. for 2 hours. Insulin or test compounds were added to the wells and the cells were incubated for an additional 20 minutes at 37° C. The cells were washed with PBS three times and then lysed in 60 μL/well of a lysis buffer containing 50 mM HEPES, pH 7.4, 1% Triton X-100, 5 mM EDTA, 5 mM EGTA, 20 mM sodium pyrophosphate, 1 mM sodium vanadate, 20 mM sodium fluoride, 1 mg/mL Bacitracin, 150 mM sodium chloride, 2 μg/mL Aprotonin, and 1 mM PMSF. Lysates were transferred to a second 96-well plate pre-coated with monoclonal anti-insulin receptor antibody (0.2 μg/50 μL/well, in 20 mM NaHCO3, pH 9.6). The second plate was incubated at 4° C. for 16 hours to immunoabsorb insulin receptors.
CHO.IR cells were cultured at approximately 1.5×10^5 cells/well (in a 96-well plate) in a Hams F12 medium supplemented with 10% fetal calf serum, fungizone, penicillin, and streptomycin. The cells were incubated at 37° C. for 24 hours, allowing cells to reach confluency. The cells were then washed with PBS three times and then incubated in serum-free medium at 37° C. for 2 hours. Insulin or test compounds were added to the cells and incubated for an additional 20 minutes at 37° C. The cells were washed three times with PBS and lysed in the same 60 μL lysis buffer as mentioned in Example 174. Lysates were transferred to a second 96-well plate pre-coated with monoclonal anti-insulin receptor antibody (under the same conditions as those mentioned in Example 174). Lysates were incubated at 4° C. for 16 hours to immunoabsorb insulin receptors.
20 μL of a kinase reaction mixture (50 mM Hepes, pH 7.6, 150 mM NaCl, 5 mM MgCl2, 5 mM MnCl2, 0.1% Triton x-100, 1 mg/mL poly(Glu:Tyr)(4:1), 2 μCi of carrier-free [γ-^32P]ATP) was added to each well. After reacting at 25° C. for 40 minutes, the reaction mixture was transferred to a Multiscreen pH plate (Millipore, Billerica, Mass.) and unbound ATP was washed away. The insulin receptor tyrosine kinase activity was determined by detecting the radioactivities associated with the wells using a Topcount scintillation counter (Perkin-Elmer, Wellesley, Mass.).

T1 sequence (P06213 28-758 limits assumed): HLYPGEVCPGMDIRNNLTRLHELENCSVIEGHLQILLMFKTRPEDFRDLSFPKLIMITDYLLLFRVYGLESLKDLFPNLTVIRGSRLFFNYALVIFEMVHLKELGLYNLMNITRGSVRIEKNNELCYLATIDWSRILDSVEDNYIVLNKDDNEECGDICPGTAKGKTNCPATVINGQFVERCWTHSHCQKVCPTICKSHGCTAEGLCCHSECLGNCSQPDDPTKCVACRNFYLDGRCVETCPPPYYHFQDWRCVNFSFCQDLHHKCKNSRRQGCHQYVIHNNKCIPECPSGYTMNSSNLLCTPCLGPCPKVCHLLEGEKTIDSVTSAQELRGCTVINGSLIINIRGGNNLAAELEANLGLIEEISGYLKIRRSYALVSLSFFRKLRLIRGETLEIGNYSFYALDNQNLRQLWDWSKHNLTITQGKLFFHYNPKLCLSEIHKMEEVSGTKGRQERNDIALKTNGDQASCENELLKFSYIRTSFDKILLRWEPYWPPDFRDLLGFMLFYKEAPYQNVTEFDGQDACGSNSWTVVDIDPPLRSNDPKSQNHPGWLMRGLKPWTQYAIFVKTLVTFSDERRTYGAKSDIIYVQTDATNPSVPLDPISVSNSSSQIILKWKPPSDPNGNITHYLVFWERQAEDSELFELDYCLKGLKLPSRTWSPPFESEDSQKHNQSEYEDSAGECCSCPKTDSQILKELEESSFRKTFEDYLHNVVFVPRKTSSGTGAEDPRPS
T1 sequence (P06213 763-1382 limits assumed): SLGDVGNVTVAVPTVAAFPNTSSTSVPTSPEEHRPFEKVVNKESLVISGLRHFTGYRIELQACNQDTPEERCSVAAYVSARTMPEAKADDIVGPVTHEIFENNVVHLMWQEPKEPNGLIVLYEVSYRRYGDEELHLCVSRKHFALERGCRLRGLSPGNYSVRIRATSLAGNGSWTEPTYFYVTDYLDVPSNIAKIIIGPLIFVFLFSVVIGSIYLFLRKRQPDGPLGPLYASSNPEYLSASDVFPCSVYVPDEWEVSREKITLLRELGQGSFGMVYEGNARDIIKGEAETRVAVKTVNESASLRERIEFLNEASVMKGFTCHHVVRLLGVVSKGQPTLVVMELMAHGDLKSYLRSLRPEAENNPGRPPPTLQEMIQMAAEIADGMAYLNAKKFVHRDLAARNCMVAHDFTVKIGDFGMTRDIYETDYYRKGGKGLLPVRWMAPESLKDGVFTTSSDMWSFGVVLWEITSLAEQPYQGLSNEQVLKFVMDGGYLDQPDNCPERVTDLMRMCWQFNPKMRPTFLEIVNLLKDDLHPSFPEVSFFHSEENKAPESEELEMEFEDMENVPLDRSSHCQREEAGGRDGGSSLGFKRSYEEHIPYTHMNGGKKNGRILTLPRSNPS

As for `O=C(O)c1oc(C(=O)c2c[nH]c3c(CCCCCO)cccc23)c(O)c1-c1c[nH]c2ccccc12` [Compound 30], the inhibition at 100 µM was in the range of 12 to 53%.
The result for `O=C(O)c1oc(C(=O)c2c[nH]c3c(CCCC(CO)CO)cccc23)c(O)c1-c1c[nH]c2ccccc12` [Compound 173] reads 12 to 53%; that for `O=C(O)c1oc(C(=O)c2c[nH]c3c(CCCCO)cccc23)c(O)c1-c1c[nH]c2ccccc12` [Compound 21], 12 to 53%; that for `O=C(O)CCc1cccc2c(C(=O)c3oc(C(=O)O)c(-c4c[nH]c5ccccc45)c3O)c[nH]c12` [Compound 170], 12 to 53%.
The result for `O=C(O)CCCCc1cccc2c(C(=O)c3oc(C(=O)O)c(-c4c[nH]c5ccccc45)c3O)c[nH]c12` [Compound 172] reads 12 to 53%.
The same measure for `CCCCCc1cccc2c(C(=O)c3oc(C(=O)O)c(-c4c[nH]c5ccccc45)c3O)c[nH]c12` [Compound 171]: 12 to 53%.
For `O=C(O)c1sc(C(=O)c2c[nH]c3c(CCCCCO)cccc23)c(O)c1-c1c[nH]c2ccccc12` [Compound 114], the inhibition at 100 µM lay within 12 to 53%.
The result for `O=C(O)c1oc(C(=O)c2c[nH]c3c(CCCO)cccc23)c(O)c1-c1c[nH]c2ccccc12` [Compound 9] reads 12 to 53%.
